The results in this text go back to publication PMC8344022, “Small-molecule inhibitor of AF9/ENL-DOT1L/AF4/AFF4 interactions suppresses malignant gene expression and tumor growth” (Theranostics, 2021).

One assay has as its target T1, ENL-AF4 interaction (Homo sapiens, UniProt Q03111).
T1 construct: ENL AHD domain (489-559) was synthesized (by Genscript) and inserted into the pMAL c5X expression plasmid; made in house; host or cells: E. coli BL21(DE3)
Kind of assay: Alpha assay, ENL-AF4 interaction. The assay is classed as binding. As to conditions: read-out: IC50, inhibition of ENL-AF4 interaction. The method, then:
ENL is also a major MLL fusion partner (~10%). The AHD domains of human ENL and AF9 share a high homology with 82% identity and 89% similarity (Figure S1A). […] Our attempts to develop an Alpha assay for ENL-DOT1L failed. […] Compound 1's activity against ENL-DOT1L was therefore not determined.
Alpha assays. Alpha assays were developed using Perkin-Elmer AlphaLisa anti-MBP kit, which contains streptavidin donor beads and anti-MBP acceptor beads. The assay was performed using a MBP-protein (5 nM), a biotinylated peptide (40 nM), and increasing concentrations of a compound in 25 µL buffer (PBS with 0.5 % BSA, pH 7.5) in 384-well plates according to the manufacturer's protocol and measured with a Tecan SPARK microplate reader. Data were imported into Prism (version 5.0), and IC50 values from 3 independent experiments with standard deviation were obtained by using a standard dose-response curve fitting.

Assay [1] has as its target T2, AF9 AHD bound to DOT1L-coated beads (Homo sapiens, UniProt P42568).
T2 construct: cDNA for human AF9 AHD domain (475-568) and ENL AHD domain (489-559) was synthesized; made in house; host or cells: E. coli BL21(DE3)
Put plainly: Western blot based pull-down assay. In kind it is binding. To be noted: increasing concentrations. The method, then:
A non-optical pull-down assay was used to further validate compound 1. DOT1L-coated beads were incubated with AF9 AHD in the presence of increasing concentrations of 1.
Western blot based pull-down assay. Biotinylated DOT1L peptide (0.25 mg/mL) was incubated with streptavidin agarose beads in PBS containing 0.1% Triton X-100 (400 µL) for 3h to yield, after washing, DOT1L-coated beads. MBP-AF9 AHD (0.2 µM, 40 µL) was pre-incubated with a compound for 30 min before adding to the beads. After 6 hours incubation at 4 °C, the beads were collected, thoroughly washed, and subjected to SDS-PAGE and analyzed by Western blot using an MBP Mouse mAb (#2396, Cell signaling).
Background: A western blot detects proteins with antibodies after separation by electrophoresis.

In another assay the target is DOT1L (Homo sapiens, UniProt Q8TEK3). Put plainly: DOT1L enzyme inhibition. As to conditions: at 100 µM (Figure S3: 30 or 100 µM). In kind it is biochemical. The method, then: Inhibition of DOT1L, LSD1 and p300 was performed using our previously reported methods, [37], [38].
LSD1, and p300 histone acetyltransferase at 30 or 100 µM, using our previous reported methods [Ref. 36, 37,
(§1) (1 picture or pasted object on this page, not shown here)

For another assay, the system named is HL60 cells. Put plainly: Antiproliferation assay (XTT). The assay is classed as cell-based. As to conditions: Homo sapiens, HL-60, 168 h, 7-day incubation, read-out: Cytotoxicity EC50. The procedure: (§2) Antiproliferation assay. Proliferation inhibition assays for suspension blood cancer cells were performed using an XTT assay kit (Roche). Proliferation inhibition assays for solid tumor cell lines MCF-7, MDA-MB-231, Panc1, Panc28 were performed using an MTT assay (Sigma). The antiproliferation EC50 values were determined using Prism 5 and the reported results were the mean values of at least three independent experiments. The incubation time for compound 1 was 7 days and that for EPZ4777 was 14 days.
In general terms: Tetrazolium dyes change colour on reduction, which living cells bring about.

For the next assay, the system named is Jurkat cells. Kind of assay: Antiproliferation assay (XTT). As to conditions: Homo sapiens, 168 h, 7-day incubation, read-out: Cytotoxicity EC50. In kind it is cell-based. The method, then:
as §2

The test system of the next assay is Kasumi-1 cells. Kind of assay: Antiproliferation assay (XTT). In kind it is cell-based. To be noted: Homo sapiens, 168 h, 7-day incubation, read-out: Cytotoxicity EC50. The procedure:
as §2

The subject of a further assay is MV4;11 cells. Kind of assay: Antiproliferation assay (XTT). To be noted: Homo sapiens, 168 h, 7-day incubation, read-out: Cytotoxicity EC50. The assay is classed as cell-based. The procedure: as §2
In the next assay the test system is Molm-13 cells. Put plainly: Antiproliferation assay (XTT). The assay is classed as cell-based. The procedure:
as §2

In a further assay the test system is RPMI-8226 cells. Kind of assay: Antiproliferation assay (XTT). In kind it is cell-based. As to conditions: Homo sapiens, 168 h, 7-day incubation, read-out: Cytotoxicity EC50. The procedure:
as §2

The next assay relates to THP-1 cells. Put plainly: Antiproliferation assay (XTT). The assay is classed as cell-based. To be noted: Homo sapiens, 168 h, 7-day incubation, read-out: Cytotoxicity EC50. The procedure:
as §2

The test system of a further assay is U266 cells. Kind of assay: Antiproliferation assay (XTT). In kind it is cell-based. As to conditions: Homo sapiens, U-266, 168 h, 7-day incubation, read-out: Cytotoxicity EC50. The method, then:
as §2

The subject of the next assay is MCF-7 cells. Put plainly: Antiproliferation assay (MTT). In kind it is cell-based. To be noted: Homo sapiens, MCF7, 168 h, 7-day incubation, read-out: Cytotoxicity EC50. The procedure:
as §2

The test system of another assay is MDA-MB-231 cells. Kind of assay: Antiproliferation assay (MTT). In kind it is cell-based. As to conditions: Homo sapiens, 168 h, 7-day incubation, read-out: Cytotoxicity EC50. The procedure: as §2
For another assay, the system named is Panc-1 cells. Kind of assay: Antiproliferation assay (MTT). As to conditions: Homo sapiens, 168 h, 7-day incubation, read-out: Cytotoxicity EC50. The assay is classed as cell-based. The method, then: as §2
A further assay concerns Panc-28 cells. Kind of assay: Antiproliferation assay (MTT). To be noted: 168 h, 7-day incubation, read-out: Cytotoxicity EC50. In kind it is cell-based. The method, then:
as §2

Assay [2] has as its system nuclear protein levels in Molm-13 cells. Kind of assay: Western blot of nuclear proteins. To be noted: 3 days. In kind it is cell-based. The method, then:
Next, we investigated how compound 1 affects these transcription cofactors in the nucleus, where they regulate gene expression. […] DOT1L inhibitor EPZ4777 [25] reduced the methylation levels of H3K79, but not other proteins (Figure 3B). […] In this regard, despite lack of activity against DOT1L, compound 1 can mimic EPZ4777 to reduce H3K79 methylation.
Western blot. 3x10^6 cells/well were treated with increasing concentrations of a compound for 3 days and nuclear proteins extracted with the EpiQuik Nuclear Extraction Kit (Epigentek) according to the manufacturer's protocol. Equal amounts of proteins were separated on SDS-PAGE and transferred to PVDF membranes. The blots were probed with primary antibodies, followed by anti-rabbit or anti-mouse IgG (Thermo Scientific) secondary antibodies. The primary antibodies used in this research were MBP Mouse mAb (#2396, Cell signaling), DOT1L Rabbit mAb (#77087, Cell signaling), MLL-N Rabbit mAb (#14689, Cell signaling), ENL Rabbit mAb (#14893, Cell signaling), Di-Methyl-Histone H3K79 Rabbit mAb (#5427, Cell signaling), Mono-Methyl-Histone H3K79 Rabbit mAb (#9398, Cell signaling), Histone H3 Rabbit mAb (#4499, Cell signaling), AF4 Rabbit pAb (#NBP1-28705, Novusbio) and AFF4 Rabbit pAb (#ab103586, Abcam).

Assay [3] concerns cytoplasmic protein levels in MV4;11 cells. Kind of assay: Western blot of cytoplasmic proteins. In kind it is cell-based. As to conditions: 3 days, except for ENL at 15 µM. The method, then: (§3) Figure S4. The cytoplasmic protein levels after treatment with Cpd-1 for 3 days. (A) In contrast to the protein
(§4) me2, ENL and AFF4 in MV4;11 cells, except for ENL at 15 µM.
as §1

In assay [4] the test system is cytoplasmic protein levels in Molm-13 cells. Put plainly: Western blot of cytoplasmic proteins. In kind it is cell-based. As to conditions: 3 days. The method, then: as §3, §4, §1

“And” between values parts separate entries of the source, which are not always exact repeats. Identical values can stand only once. A value given as a limit tells only on which side of the number the result lay.

T1 sequence (Q03111 489-559): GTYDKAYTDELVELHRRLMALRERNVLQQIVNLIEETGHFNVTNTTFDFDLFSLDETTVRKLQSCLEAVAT
Sequence of DOT1L (Q8TEK3 1-472): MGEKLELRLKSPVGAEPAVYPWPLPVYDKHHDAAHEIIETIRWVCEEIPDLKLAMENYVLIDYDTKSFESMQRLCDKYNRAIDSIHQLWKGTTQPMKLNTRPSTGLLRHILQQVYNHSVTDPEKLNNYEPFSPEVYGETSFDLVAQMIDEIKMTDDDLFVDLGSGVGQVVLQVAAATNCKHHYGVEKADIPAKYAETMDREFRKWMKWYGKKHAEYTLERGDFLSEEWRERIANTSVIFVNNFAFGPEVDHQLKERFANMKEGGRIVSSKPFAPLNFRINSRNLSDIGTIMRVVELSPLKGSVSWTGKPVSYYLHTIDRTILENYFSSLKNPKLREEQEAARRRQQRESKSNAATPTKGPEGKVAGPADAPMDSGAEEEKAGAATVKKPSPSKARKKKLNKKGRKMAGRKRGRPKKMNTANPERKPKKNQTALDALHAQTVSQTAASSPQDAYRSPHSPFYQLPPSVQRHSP
T2 sequence (P42568 475-568): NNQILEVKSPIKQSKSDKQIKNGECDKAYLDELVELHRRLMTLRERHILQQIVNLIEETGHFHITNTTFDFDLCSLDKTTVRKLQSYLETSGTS

Broadly, the IC50 is the concentration at which inhibition is half-maximal. The term EC50 denotes the concentration that produces a half-maximal response. For the molecule `CC(C)(C)c1ccc(-n2cc(C(=O)NC3CCNCC3)nc2-c2ccccc2)cc1` [Compound 1], on ENL-AF4 interaction, the 50% inhibitory concentration (IC50) was 0.9 µM and 0.94 µM. In addition, in assay [1], the “Beads-bound AF9 AHD in pull-down (Western blot)” value is on record as “reduced beads-bound AF9 AHD with a similar IC50”. Besides, the “Inhibition of DOT1L enzyme activity” value on DOT1L is “did not significantly inhibit”. Further, the concentration for a half-maximal effect (EC50) was 7.3 ± 0.1 µM with HL60 cells; 9.7 ± 0.3 µM with Jurkat cells; 8.9 ± 0.3 µM with Kasumi-1 cells; 4.7 ± 0.4 µM in the assay with MV4;11 cells; 4.9 ± 0.1 µM in the assay with Molm-13 cells (Homo sapiens, 168 h, 7-day incubation, read-out: Cytotoxicity EC50); 3.3 ± 0.1 µM in the assay on RPMI-8226 cells. The EC50 turned out to be 11.4 ± 0.6 µM in the assay with THP-1 cells; 7.9 ± 0.4 µM in the assay with U266 cells; 19.8 ± 0.3 µM with MCF-7 cells; 13.5 ± 0.2 µM in the assay on MDA-MB-231 cells; 15.1 ± 0.2 µM with Panc-1 cells; 23.8 ± 0.2 µM in the assay on Panc-28 cells. Further, the “Inhibition of cell proliferation” value in the assay with Molm-13 cells (10 μM, Day-2 or 3) is recorded as “did not significantly inhibit”. In the assay with Molm-13 cells (Homo sapiens, 10 μM, Day-5, read-out: Inhibition of cell proliferation), the inhibition at 10 µM was > 90%. Besides, the “Nuclear levels of DOT1L, H3K79me1 and me2, ENL and AFF4” value in assay [2] was “reduced the nuclear levels of DOT1L, H3K79me1 and me2, ENL and AFF4”. Moreover, the “Nuclear levels of MLL-AF9” value in assay [2] is listed as “unaffected”. In addition, the “Cytoplasmic protein levels of H3K79me1 and me2, ENL and AFF4” value in [3] is listed as “did not significantly reduce”. Also, in assay [4], the “Cytoplasmic levels of H3K79me1 and me2, ENL and AFF4” value is listed as “did not significantly reduce”.
